pEC50: −log10 of the molar value.

This assay addresses T1, L-amino-acid oxidase (Homo sapiens, UniProt Q96RQ9).
T1 sequence (Q96RQ9 whole entry): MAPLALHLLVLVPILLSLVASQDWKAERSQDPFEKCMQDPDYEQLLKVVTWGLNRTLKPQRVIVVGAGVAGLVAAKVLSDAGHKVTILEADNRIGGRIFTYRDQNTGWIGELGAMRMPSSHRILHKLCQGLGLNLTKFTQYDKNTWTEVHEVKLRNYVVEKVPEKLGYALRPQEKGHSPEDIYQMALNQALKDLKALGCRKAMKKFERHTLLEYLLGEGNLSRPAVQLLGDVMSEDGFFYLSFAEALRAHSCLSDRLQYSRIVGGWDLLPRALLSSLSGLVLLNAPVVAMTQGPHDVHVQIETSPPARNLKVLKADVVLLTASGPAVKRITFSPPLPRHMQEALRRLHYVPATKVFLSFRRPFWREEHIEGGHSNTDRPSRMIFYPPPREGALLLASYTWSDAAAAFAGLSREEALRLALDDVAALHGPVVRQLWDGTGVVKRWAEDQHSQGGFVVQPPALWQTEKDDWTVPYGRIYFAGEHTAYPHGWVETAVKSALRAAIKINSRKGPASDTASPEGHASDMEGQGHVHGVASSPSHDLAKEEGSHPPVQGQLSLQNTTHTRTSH
The assay is described as follows: IL4I1 Enzymatic Assay. How it is done: nterleukin 4 inducible protein 1 (IL4I1) is an L-amino oxidase that catalyzes the oxidation of aromatic residues (Phe, Trp and Tyr): L-amino acid+H2O+O2→2-oxo acid+NH3+H2O2. Equal molar of H2O2 and the corresponding alpha-ketoacid are produced when IL4I1 and substrate are added. In this assay, the hydrogen peroxide generated by IL4I1 are then detected through a coupled reaction with Amplex Red (10-acetyl-3,7-dihydroxyphenoxazine) and […] (HRP) to produce Resorufin product that could be detected in the form of fluorescence signals. The assessment of the inhibitory effect of small molecules (EC50) on IL4I1 is measured by the effectiveness of the compounds to inhibit the production of H2O2.Using this assay, the potency (EC50) of each compound was determined from a ten-point (1:3 serial dilution; top compound concentration of 10000 nM) titration curve using the following outlined procedure. To each well of a black flat-bottom Greiner (Cat #781076) 384 well-plate, 25 nL of compound (0.1% DMSO in final assay volume of 25 μL) was dispensed, followed by the addition of 12.5 μL of 1× assay buffer (50 mM Hepes 7.0 and 0.005% Tween20 (Sigma, Cat #P8341; low peroxide grade)) containing 2 nM of recombinant IL4I1 (R&D Systems, Cat #5684-AO-020). Plates were placed in an ambient temperature humidified chamber for a four-hour pre-incubation with compound. Subsequently, each reaction was initiated by the addition of 12.5 μL 1× assay buffer containing 2 mM of each aromatic amino acids (Phe/Tyr/Trp), 0.1 mM Amplex Red and 2 U/mL of HRP. The final reaction in each well of 25 μL consists of 1 nM of IL4I1, 1 mM of each residues (Phe, Tyr and Trp), 0.05 mM Amplex Red and 1 U/mL of HRP. It should be noted that the concentrations of Amplex Red and HRP used here are in excess such that the conversion of H2O2 to Resorufin product occurs instantaneously and non-rate limiting.
As to `O=c1[nH]c2ccccc2cc1Cc1ccc(C2(F)CNC2)cc1` [US20240287022, Example 76], the pEC50 was 8.09.

`N#CCc1ccc(Cc2cc3ccccc3[nH]c2=O)cn1` [US20240287022, Example 93]: the pEC50 is 7.84.

In the case of `O=c1[nH]c2ccncc2cc1Cc1ccc2scnc2c1` [US20240287022, Example 114], the negative-log EC50 (pEC50) was 8.82. This pEC50 is 0.98 log units higher than that of the molecule before.

Take `Cn1c(=O)c(Cc2ccc(Cc3nnco3)cc2)cc2ccccc21` [US20240287022, Example 145]: the pEC50 is 6.81.

These data come from BindingDB's records for patent US20240287022 (Merck Sharp & Dohme, 2024).
